Reference: patent US8883750B2, “Method of treating diabetes” (Gilead Sciences, Inc., priority 2002, dated 2014)

Key:
[1] = Solubility of ranolazine in aqueous solutions as a function of pH; assay type: physicochemical
chronic angina patients = assay: Adverse events in CARISA and MARISA; assay type: in vivo, human; details: for Patients with at least one adverse event: CARISA
Method: (§1) The CARISA (Combination Assessment of Ranolazine in Stable Angina) study randomized 823 symptomatic chronic angina patients on diltiazem, atenolol or amlodipine to ranolazine 750 mg bid, 1000 mg bid or placebo in a parallel, double-blind, 12 week study. Modified Bruce treadmill tests were performed at baseline, and after 2, 6, and 12 weeks of treatment at trough and peak plasma levels. The ranolazine formulation used in this study was that shown in Example 10.
(§2) Angina frequency and nitroglycerin consumption were reduced by ranolazine. The ranolazine formulation used in the CARISA and MARISA studies was that shown in Example 10. The most frequently reported adverse events (dizziness constipation and nausea) were generally mild and occurred in fewer than 10% of patients. The potential use of ranolazine in diabetics is of interest because approximately one in four angina patients has diabetes.

diabetic patients [2] = assay: Open-label long-term ranolazine treatment of MARISA/CARISA diabetic patients; assay type: in vivo, human
Method: Efficacy and tolerability of ranolazine were similar in both diabetic and non-diabetic patients in both MARISA and CARISA. In diabetic patients in CARISA (N=131), ranolazine 750 and 1000 mg bid were associated with a mean absolute reduction in HbA1c of 0.48 percentage points and 0.70 percentage points, respectively, compared to placebo at 12 weeks (each p<0.01). The reductions versus placebo were greater in those patients on insulin (N=31; 0.84 and 1.05 percentage points), on 750 and 1000 mg bid (p<0.02 and p<0.01), respectively. Fasting glucose was not affected by ranolazine in diabetic patients in CARISA, regardless of insulin treatment; one hypoglycemic episode was reported on placebo and one on ranolazine.

angina patients = assay: Angina clinical trials using ranolazine: blood parameters (summary in background); assay type: in vivo, human
Text: One compound disclosed therein, (±)-N-(2,6-dimethylphenyl)-4-[2-hydroxy-3-(2-methoxyphenoxy)-propyl]-1-piperazineacetamide (known as ranolazine) is undergoing clinical trials for the treatment of angina. […] Ranolazine was also found to reduce triglyceride levels in non-diabetic patients. Ranolazine was also found to lower glucose plasma levels and, over the long term, total cholesterol levels, while increasing HDL cholesterol levels. Thus, ranolazine provides a method of treating diabetes pre-diabetes, or the non-diabetes condition by reducing the levels of potentially toxic metabolites in blood and/or complications associated with diabetes. Ranolazine also can reduce the number of medications necessary for a patient with both cardiovascular problems and diabetes or pre-diabetes.

[3] = tested on: patients with chronic angina; assay: MARISA study: treadmill exercise capacity, ranolazine alone; assay type: in vivo, human; details: N=191
Text: as §2

diabetic patients [4] = assay: CARISA study: glucose, triglyceride and cholesterol values of diabetic patients; assay type: in vivo, human; details: for Glucose, change from baseline / Triglycerides, change from baseline: all diabetic patients, mean ± SEM; for Glucose, change from baseline: placebo change 1.2 ± 7.1; for Triglycerides, change from baseline: placebo change 26.3 ± 21.2
Method: as §1, with “CARISA” left out

[5] = tested on: symptomatic chronic angina patients; assay: CARISA study: modified Bruce treadmill exercise tests and angina, ranolazine added to background anti-anginal therapy; assay type: in vivo, human; details: for Prolongation of exercise duration at trough drug concentrations: Example 10 formulation
Method: as §1, §2

[6] = tested on: angina patients with diabetes; assay: CARISA study: hemoglobin A1c in angina patients with diabetes; assay type: in vivo, human; details: 12 weeks; for Average absolute reduction in HbA1c compared to placebo: all diabetic patients (N=131); for Absolute reduction in HbA1c compared to placebo: diabetic patients on insulin (N=31)
Method: HbA1c levels were assayed following a modification of the method of Phillipov (Components of total measurement error for hemoglobin A1c determination. Phillipov, G., et al. Clin. Chem. (2001), 47(10):1851). (see FIG. 1) The […] (Combination Assessment of Ranolazine in Stable Angina) study randomized 823 symptomatic chronic angina patients on diltiazem, atenolol or amlodipine to ranolazine 750 mg bid, 1000 mg bid or placebo in a parallel, double-blind, 12 week study. Modified Bruce treadmill tests were performed at baseline, and after 2, 6, and 12 weeks of treatment at trough and peak plasma levels. The ranolazine formulation used in this study was that shown in Example 10.

[7] = over 3 years of open-label treatment, combined MARISA/CARISA diabetic population
[8] = first 12 weeks of treatment, diabetic patients in CARISA
[9] = CARISA, diabetic and non-diabetic patients

Solubility in aqueous solutions (in words) ([1]; aqueous solutions having a pH above about 6.5): relatively insoluble | USP Solubility Class ([1]; solution pH 4.81): Freely Soluble | USP Solubility Class ([1]; solution pH 4.89): Soluble | USP Solubility Class ([1]; solution pH 4.90): Soluble | USP Solubility Class ([1]; solution pH 5.04): Soluble | USP Solubility Class ([1]; solution pH 5.35): Sparingly Soluble | USP Solubility Class ([1]; solution pH 5.82): Slightly soluble | USP Solubility Class ([1]; solution pH 6.46): Slightly soluble | USP Solubility Class ([1]; solution pH 6.73): Very slightly soluble | USP Solubility Class ([1]; solution pH 7.08): Very slightly soluble | USP Solubility Class ([1]; solution pH 7.59 (unbuffered water)): Very slightly soluble | USP Solubility Class ([1]; solution pH 7.79): Very slightly soluble | USP Solubility Class ([1]; solution pH 12.66): Very slightly soluble | Mean increase in LDL cholesterol (diabetic patients [4]; [8]): ≤ 11 mg/dL | Mean increase in total cholesterol (diabetic patients [4]; [8]): up to 16 mg/dL
SMILES: COc1ccccc1OCC(O)CN1CCN(CC(=O)Nc2c(C)cccc2C)CC1 (racemic) [ranolazine, N-(2,6-dimethylphenyl)-4-[2-hydroxy-3-(2-methoxyphenoxy)propyl]-1-piperazineacetamide]
Patients with the most frequently reported adverse events (dizziness constipation and nausea) (chronic angina patients; CARISA and MARISA, generally mild): < 10% | Patients with at least one adverse event (chronic angina patients; diabetic patients, 750 mg bid (placebo 25%)): 25% | Patients with at least one adverse event (chronic angina patients; diabetic patients, 1000 mg bid (placebo 25%)): 34% | Patients with at least one adverse event (chronic angina patients; non-diabetic patients, 750 mg bid (placebo 27%)): 33% | Patients with at least one adverse event (chronic angina patients; non-diabetic patients, 1000 mg bid (placebo 27%)): 32% | Hypoglycemic episodes reported (chronic angina patients; diabetic patients in CARISA (one on placebo)): one | Decrease of HbA1c from baseline (diabetic patients [2]; after 12-24 months of open-label treatment, diabetic patients): 1.1 percentage points | HDL cholesterol (diabetic patients [2]; [7]): continued to increase | LDL cholesterol (diabetic patients [2]; [7]): decreased from baseline | Total cholesterol (diabetic patients [2]; [7]): decreased from baseline | Glucose plasma levels (angina patients; angina clinical trials): lower | HDL cholesterol levels (angina patients; angina clinical trials): increasing | Hemoglobulin A1 (HbA1c) levels (angina patients; diabetic angina patients): reduced | Triglyceride levels (angina patients; diabetic angina patients, over the long term): reduced | Triglyceride levels (angina patients; non-diabetic patients): reduce | Total cholesterol levels (angina patients; over the long term): lower | Treadmill exercise capacity [3]: increased | Glucose, change from baseline (diabetic patients [4]; 750 mg bid, baseline 168 ± 8.0): 8.0 ± 8.8 mg/dL | Triglycerides, change from baseline (diabetic patients [4]; 750 mg bid, baseline 192.0 ± 14.5): 21.2 ± 13.5 mg/dL | Glucose, change from baseline (diabetic patients [4]; 1000 mg bid, baseline 165.2 ± 7.8): 1.7 ± 7.2 mg/dL | Triglycerides, change from baseline (diabetic patients [4]; 1000 mg bid, baseline 196 ± 17.5): -7.3 ± 9.3 mg/dL | Fasting glucose (diabetic patients [4]; diabetic patients in CARISA, regardless of insulin treatment): not affected | HDL/LDL ratio (diabetic patients [4]; [8]): changed little | Mean increase in HDL cholesterol (diabetic patients [4]; [8]): up to 5 mg/dL | Prolongation of exercise duration at trough drug concentrations ([5]; 750 mg bid, angina patients with diabetes): 29 s | Prolongation of exercise duration at trough drug concentrations ([5]; 750 mg bid, non-diabetic angina patients): 22 s | Prolongation of exercise duration at trough drug concentrations ([5]; 1000 mg bid, angina patients with diabetes): 34 s | Prolongation of exercise duration at trough drug concentrations ([5]; 1000 mg bid, non-diabetic angina patients): 21 s | Angina frequency [5, 9]: decreased | Time to angina [5, 9]: increased | Angina frequency ([5]; MARISA and CARISA): reduced | Nitroglycerin consumption ([5]; MARISA and CARISA): reduced | Treadmill exercise capacity ([5]; added to atenolol, diltiazem, or amlodipine, CARISA, N=823): increased | Exercise duration (ED) at trough and peak (in words) ([5]; similarly in diabetic and non-diabetic patients): prolonged | Average absolute reduction in HbA1c compared to placebo ([6]; 750 mg bid, p<0.01): 0.48 percentage points | Absolute reduction in HbA1c compared to placebo ([6]; 750 mg bid, p<0.02): 0.84 percentage points | Absolute reduction in HbA1c compared to placebo ([6]; 750 mg bid, p<0.02, listed as Ranolazine): 0.8 percentage points | Average absolute reduction in HbA1c compared to placebo ([6]; 1000 mg bid, p<0.01): 0.70 percentage points | Absolute reduction in HbA1c compared to placebo ([6]; 1000 mg bid, p<0.01): 1.05 percentage points | Absolute reduction in HbA1c compared to placebo ([6]; 1000 mg bid, p<0.01, listed as Ranolazine): 1.1 percentage points
